Measured values from the NIST ThermoML archive (doi:10.1021/je900372v).
“And” between values parts separate entries of the source, which are not always exact repeats. Equal entries are not always repeated.

Details: Diaphragm manometer

[CH3][Sb]([CH3])[C](C)(C)C [tert-butyldimethylantimony]
Details | vapor or sublimation pressure
248.34 K, Crystal | 0.03829 kPa and 0.03817 kPa and 0.03826 kPa
253.33 K, Crystal | 0.05845 kPa and 0.05851 kPa and 0.05854 kPa
258.35 K, Crystal | 0.08805 kPa and 0.08784 kPa and 0.08807 kPa
263.35 K, Crystal | 0.1298 kPa and 0.1299 kPa
268.55 K, Crystal | 0.1898 kPa and 0.19 kPa
273.4 K, Crystal | 0.2687 kPa and 0.2685 kPa
278.29 K, Crystal | 0.374 kPa and 0.3741 kPa
283.32 K, Crystal | 0.5167 kPa and 0.5168 kPa and 0.5164 kPa
288.32 K, Liquid | 0.7023 kPa and 0.7022 kPa
293.29 K, Liquid | 0.9422 kPa and 0.9421 kPa and 0.942 kPa
298.29 K, Liquid | 1.251 kPa
303.28 K, Liquid | 1.642 kPa
308.27 K, Liquid | 2.131 kPa and 2.132 kPa

[CH3][Sb]([CH3])[CH3] [trimethylstibine]
Liquid
Details | vapor or sublimation pressure
249.24 K | 0.9742 kPa and 0.9744 kPa
250.24 K | 1.042 kPa
251.23 K | 1.113 kPa and 1.112 kPa
252.21 K | 1.186 kPa
253.21 K | 1.265 kPa and 1.264 kPa
258.19 K | 1.73 kPa
263.24 K | 2.345 kPa and 2.343 kPa
268.3 K | 3.134 kPa and 3.136 kPa
273.35 K | 4.143 kPa
278.36 K | 5.398 kPa and 5.399 kPa and 5.395 kPa
283.33 K | 6.941 kPa and 6.94 kPa and 6.938 kPa
288.27 K | 8.822 kPa and 8.821 kPa
290.71 K | 9.9 kPa and 9.899 kPa
293.24 K | 11.13 kPa
296.22 K | 12.74 kPa and 12.73 kPa
